From PubChem BioAssay (NCI)
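Growth conditions: 96-well plates. Treatment: test compound, 48 hours, 5 concentrations. Analysis: linear interpolation between bracketing concentrations; unreached endpoints set to highest concentration. At the TGI there is no net growth.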

Assays:
Test in all cases: inhibition of tumour cell growth, NCI panel, 48 h
COLO 205 colon = tested on: COLO 205 colon
HCT-15 colon = tested on: HCT-15 colon
HOP-92 NSCLC = tested on: HOP-92 NSCLC
MOLT-4 leukemia = tested on: MOLT-4 leukemia
NCI-H23 lung = tested on: NCI-H23 lung
NCI-H460 lung = tested on: NCI-H460 lung
OVCAR-4 ovarian = tested on: OVCAR-4 ovarian
SF-539 CNS = tested on: SF-539 CNS
SK-MEL-28 melanoma = tested on: SK-MEL-28 melanoma
SN12C renal = tested on: SN12C renal

Structure (SMILES) | TGI (COLO 205 colon) | TGI (HCT-15 colon) | TGI (HOP-92 NSCLC) | TGI (MOLT-4 leukemia) | TGI (NCI-H23 lung) | TGI (NCI-H460 lung) | TGI (OVCAR-4 ovarian) | TGI (SF-539 CNS) | TGI (SK-MEL-28 melanoma) | TGI (SN12C renal)
O=c1[nH]nc(-c2ccc([N+](=O)[O-])cc2)[nH]1 | > 100 µM | > 100 µM | > 100 µM | > 100 µM | > 100 µM | > 100 µM | > 100 µM | > 100 µM | > 100 µM | > 100 µM
OC(CCN1CCN(CCOC(c2ccc(F)cc2)c2ccc(F)cc2)CC1)c1ccc(Br)cc1 (stereo not given) | 3.84 µM | 8.25 µM | 13.7 µM | 7.73 µM | 18.9 µM | 7.37 µM | 13.9 µM | 5.15 µM | 7.9 µM | 7.12 µM
CCCCCc1cc(CCCC)sc1-c1ccco1 | > 100 µM | > 100 µM | > 100 µM | > 100 µM | > 100 µM | > 100 µM | > 100 µM | > 100 µM | > 100 µM | > 100 µM
N#Cc1ccnc(C(=O)N2CCCC2C(=O)O)c1 (stereo not given) | > 100 µM | > 100 µM | > 100 µM | > 100 µM | > 100 µM | > 100 µM | > 100 µM | > 100 µM | > 100 µM | > 100 µM
Cc1nc2ccccc2n1Cc1ccc(NC(=S)Nc2ccccc2)cc1 | > 100 µM | > 100 µM | > 100 µM | > 100 µM | > 100 µM | > 100 µM | > 100 µM | > 100 µM | > 100 µM | > 100 µM
CCOP(=O)(CC1OC(CO)C(O)C1O)OCC (stereo not given) | > 100 µM | > 100 µM | > 100 µM | > 100 µM | > 64.1 µM | > 100 µM | > 100 µM | > 100 µM | > 100 µM | > 100 µM
O=C1CCCC2=C1CC1=C(CCCC1=O)N2c1ccc(-c2ccccc2)cc1 | > 100 µM | > 100 µM | > 100 µM | > 100 µM | > 100 µM | > 100 µM | > 100 µM | > 100 µM | > 100 µM | > 100 µM
CC(C)(C)[Si](C)(C)OC1CCOC1(O)c1ccccn1 (stereo not given) | > 100 µM | > 100 µM | > 100 µM | > 100 µM | > 100 µM | > 100 µM | > 100 µM | > 100 µM | > 100 µM | > 100 µM
O=c1cccc2n1CC1CNCC2C1 (stereo not given) | > 100 µM | > 100 µM | > 100 µM | > 100 µM | > 100 µM | > 100 µM | > 100 µM | > 100 µM | > 100 µM | > 100 µM
C[N+]1(CCCCN2c3ccccc3Sc3cc(N=[N+]=[N-])ccc32)CCN(C(=O)CCNC(=O)Cc2ccc(C(=O)c3ccccc3)cc2)CC1 | 34.9 µM | 55.9 µM | 40.5 µM | > 76.8 µM | > 82.4 µM | > 74.2 µM | 48.8 µM | > 76.9 µM | 46.4 µM | 53.5 µM
Cc1nn(C(=O)c2ccccc2O)c2c1C(c1ccc([N+](=O)[O-])cc1)SC(N)=N2 (stereo not given) | > 10 µM | > 10 µM | > 10 µM | > 10 µM | > 10 µM | > 10 µM | > 10 µM | > 2.67 µM | > 10 µM | > 10 µM
Brc1ccc2[nH]cc(-c3csc(-c4c[nH]c5ccc(Br)cc45)n3)c2c1 | 3.42 µM | 4.5 µM | 4.64 µM | 3.45 µM | 6.34 µM | 3.43 µM | 7.59 µM | 2.9 µM | 5.31 µM | 10.3 µM
CC1OC2OC3C(OCC(O)C3O)OC(=O)[C@]34CCC(C)(C)CC3C3=CCC5[C@@]6(C)C[C@H](O)[C@H](OC7OC(CO)C(O)C(O)C7OC7OC(COC(=O)CC(C)(O)CC(=O)OC1C(OC1OC(CO)C(O)C(O)C1O)C2O)C(O)C(O)C7O)[C@@](C)(CO)C6CC[C@@]5(C)[C@]3(C)CC4 (stereo not given in full) | 4.52 µM | 15.7 µM | 4.31 µM | 12.7 µM | 3.23 µM | 19.8 µM | 16.1 µM | 15.5 µM | 2.58 µM | 14.8 µM
CO[C@H](C)[C@](O)(C(=O)OCC1=CCN2CC[C@@H](O)[C@H]12)C(C)C | > 100 µM | > 100 µM | > 100 µM | > 100 µM | > 100 µM | > 100 µM | > 100 µM | > 100 µM | > 100 µM | > 100 µM
Fc1cccc(F)c1C1SCc2nc3cc(Cl)ccc3n21 (stereo not given) | 36.6 µM | > 100 µM | > 100 µM | 54.7 µM | > 100 µM | > 100 µM | > 100 µM | > 100 µM | > 100 µM | > 100 µM
COC(=O)[C@@H]1[C@H]2CC[C@]3(C)[C@@H](OC(C)=O)CC[C@H]3[C@@H]2CC[C@H]1C1(C)SCCS1 | 29.3 µM | > 100 µM | 47.9 µM | 59.3 µM | 86.7 µM | 97.8 µM | 75.2 µM | > 100 µM | > 100 µM | 37 µM
CC(=O)N=S(NC(=O)c1ccc(C)cc1)C(Cl)(Cl)Cl (stereo not given) | 45.3 µM | > 100 µM | > 100 µM | 83.8 µM | 68.2 µM | > 100 µM | 77.7 µM | > 100 µM | > 100 µM | > 100 µM
O=C(O)C12C3C4(C(=O)O)C1C1(C(=O)O)C2C3(C(=O)O)C41 (stereo not given) | > 100 µM | > 100 µM | > 100 µM | > 100 µM | > 100 µM | > 100 µM | > 100 µM | > 100 µM | > 100 µM | > 100 µM
CCOC(=O)C(NC(=O)CC)(Nc1ccccc1F)C(F)(F)F (stereo not given) | > 100 µM | > 100 µM | > 100 µM | > 100 µM | > 100 µM | > 100 µM | > 100 µM | > 100 µM | > 100 µM | > 100 µM
CCOC(=O)OC1(c2ccccc2)CCN(C)CC1 | > 100 µM | > 100 µM | > 100 µM | > 100 µM | > 100 µM | > 100 µM | > 100 µM | > 100 µM | > 100 µM | > 100 µM
CC(C)(C)C#CI1OC(=O)c2ccccc21 | 4.65 µM | 11.6 µM | 5.78 µM | 10 µM | 15.3 µM | 11.9 µM | 8.08 µM | 7.13 µM | 17.8 µM | 19 µM
CN(C)CN1C(=O)/C(=N\n2c(-c3ccncc3)n[nH]c2=S)c2ccccc21 | > 100 µM | > 100 µM | > 100 µM | 45.4 µM | > 100 µM | > 100 µM | 45.2 µM | 52.4 µM | > 100 µM | > 100 µM
Brc1ccc(/C(N=N/C(=N\Sc2ccccc2)c2ccc(Br)cc2)=N/Sc2ccccc2)cc1 | > 100 µM | > 100 µM | > 100 µM | > 100 µM | > 100 µM | > 100 µM | > 100 µM | > 100 µM | > 100 µM | > 100 µM
O=C(O)Cn1c[n+](NC(=O)Cc2ccccc2)cn1 | > 10 µM | > 10 µM | > 10 µM | > 10 µM | > 10 µM | > 10 µM | > 10 µM | > 10 µM | > 10 µM | > 10 µM
COC(=O)Cc1c2n(c3ccccc13)C(=O)N1c3ccccc3C(CC(=O)OC)C21 (stereo not given) | > 100 µM | > 100 µM | 27.5 µM | > 100 µM | 64.6 µM | 33.6 µM | 57.1 µM | 49.4 µM | > 100 µM | > 100 µM
Cc1ccc2nc(Nc3ccccc3C)c(Nc3ccccc3C)nc2c1 | 30.6 µM | 58.7 µM | 54.1 µM | > 100 µM | 45.6 µM | 45 µM | > 100 µM | > 100 µM | > 100 µM | > 100 µM
Cc1cccc2c(N)c3cccc(C(=O)NCC[N+](C)(C)[O-])c3nc12 | 40.4 µM | > 100 µM | 92.8 µM | > 100 µM | 16.7 µM | 10.2 µM | 28.2 µM | 36.7 µM | 45.2 µM | > 100 µM
